Among the test systems are M14; HCT-116; NCI-H522; 786-0; UACC-62; SK-MEL-28; SNB-75; CCRF-CEM; SF-295; SK-OV-3; SK-MEL-2; NCI-H460; MOLT-4; NCI-H226; CAKI-1; MDA-N; HCC 2998; PC-3; RPMI-8226.
What all share (experiment): NCI-60 cell line screen, 48 h

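A five-concentration, 48-hour dose response in 96-well plates underlies each endpoint, interpolated linearly between surrounding concentrations. GI50 marks 50% less growth.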 The source made the active and inactive calls. Rule as the data show it: active = GI50 up to about 1.1 µM and inactive = higher.

Turning to `Cc1ccc(C2SC(=N)Nc3c2c(C)nn3C(=O)c2ccc(Cl)cc2)cc1` (stereo not given), the GI50 in the test with M14, in the test on HCT-116, in the test on NCI-H522, with 786-0, with UACC-62 and with SK-MEL-28 was > 10 µM (inactive) each time. Also, the GI50 with SNB-75, in the test with CCRF-CEM, in the test on SF-295, in the test with SK-OV-3, with SK-MEL-2 and with NCI-H460 was > 10 µM (inactive) in each case. Also, the GI50 in the test on MOLT-4, with NCI-H226, in the test on CAKI-1, in the test on MDA-N, in the test with HCC 2998 and in the test with PC-3 was > 10 µM (inactive) throughout. Besides, the GI50 in the test on RPMI-8226 is > 10 µM (inactive).

For `CCOC(=O)C(C#N)C1=CC(=O)C(=O)c2ccc(O)cc21` (stereo not given), the GI50 was 20.9 µM (inactive) with M14; 55.1 µM (inactive) in the test with HCT-116; 26.9 µM (inactive) with NCI-H522; > 100 µM (inactive) with 786-0; 17.1 µM (inactive) with UACC-62; > 100 µM (inactive) in the test on SK-MEL-28. The GI50 in the test on SNB-75 was 51.1 µM (inactive); with CCRF-CEM it was > 100 µM (inactive); in the test with SF-295, 90.6 µM (inactive); in the test on SK-OV-3 it was > 100 µM (inactive); in the test on SK-MEL-2 it was 23.2 µM (inactive); in the test on NCI-H460, > 100 µM (inactive). Moreover, the GI50 with MOLT-4 is > 100 µM (inactive); in the test with NCI-H226 it was 41.2 µM (inactive); with CAKI-1, > 100 µM (inactive); in the test with MDA-N it was 18.5 µM (inactive); in the test on HCC 2998, > 100 µM (inactive); in the test with PC-3, > 100 µM (inactive). For the same compound, the GI50 in the test on RPMI-8226 was > 100 µM (inactive).

`O=S1OC[C@H](CCCl)O1` (stereo not given in full): the GI50 with M14 is > 100 µM (inactive); with HCT-116, > 100 µM (inactive); with NCI-H522 it was > 100 µM (inactive); with 786-0, > 100 µM (inactive); with UACC-62, > 100 µM (inactive); in the test with SK-MEL-28, 69.5 µM (inactive). In addition, the GI50 with SNB-75, in the test on CCRF-CEM, in the test on SF-295, in the test with SK-OV-3, in the test with SK-MEL-2 and in the test with NCI-H460 was > 100 µM (inactive) each time. Moreover, the GI50 in the test on MOLT-4, in the test on NCI-H226, in the test with CAKI-1, in the test on MDA-N, in the test on HCC 2998 and in the test on PC-3 was > 100 µM (inactive) throughout. Further, the GI50 in the test with RPMI-8226 was > 100 µM (inactive).

Turning to `CN1CC2=C(N=C(S)NC2c2ccc(Cl)cc2)/C(=C/c2ccc(Cl)cc2)C1` (stereo not given), the GI50 with M14 is 18.3 µM (inactive); in the test on HCT-116, 15.7 µM (inactive); in the test with NCI-H522 it was 15.5 µM (inactive); in the test with 786-0, 24.4 µM (inactive); in the test on UACC-62, 18.2 µM (inactive); in the test on SK-MEL-28, 18.5 µM (inactive). Also, the GI50 in the test with SNB-75 was 15.1 µM (inactive); in the test on CCRF-CEM it was 13.5 µM (inactive); with SF-295 it was 17.6 µM (inactive); with SK-OV-3 it was 17.3 µM (inactive); with SK-MEL-2 it was 13.3 µM (inactive); in the test on NCI-H460 it was 14.8 µM (inactive). Further, the GI50 in the test on MOLT-4 is 5.32 µM (inactive); in the test on NCI-H226 it was > 10 µM (inactive); in the test on CAKI-1, 18.3 µM (inactive); in the test on MDA-N, 19.7 µM (inactive); with HCC 2998, 16.6 µM (inactive); with PC-3, 9.4 µM (inactive). Further, the GI50 with RPMI-8226 is 25.8 µM (inactive).

As for `CC(C)OC(=O)C1(C(C)C)CCc2ccc(C(=O)CCC(=O)O)cc21` (stereo not given), the GI50 in the test with M14, with HCT-116, in the test with NCI-H522, in the test with 786-0, with UACC-62 and in the test on SK-MEL-28 was > 100 µM (inactive) in each case. The GI50 in the test with SNB-75, in the test on CCRF-CEM, in the test with SF-295, in the test on SK-OV-3, with SK-MEL-2 and with NCI-H460 was > 100 µM (inactive) each time. Besides, the GI50 in the test with MOLT-4, in the test with NCI-H226, in the test with CAKI-1, in the test on MDA-N, with HCC 2998 and in the test with PC-3 was > 100 µM (inactive) in each case. Further, the GI50 with RPMI-8226 was > 100 µM (inactive).

For the compound `COc1ccc2c(c1)c1nn(CCN3CCCCC3)c3ccc4c(=O)n(CCN(C)C)c(=O)n2c4c13`, the GI50 in the test with M14 was 0.0188 µM (active); with HCT-116, < 0.01 µM (active); with NCI-H522, < 0.01 µM (active); in the test with 786-0, < 0.01 µM (active); with UACC-62, 0.0304 µM (active); in the test on SK-MEL-28, 0.139 µM (active). The GI50 with SNB-75 is < 0.01 µM (active); in the test with CCRF-CEM, < 0.01 µM (active); in the test on SF-295, < 0.01 µM (active); with SK-OV-3, 0.565 µM (active); in the test with SK-MEL-2, 0.04 µM (active); with NCI-H460 it was < 0.01 µM (active). For the same compound, the GI50 with MOLT-4 was < 0.01 µM (active); in the test on NCI-H226 it was 0.0231 µM (active); in the test with CAKI-1, 0.0219 µM (active); in the test on MDA-N it was < 0.0109 µM (active); in the test on HCC 2998 it was < 0.01 µM (active); with PC-3, 0.019 µM (active). Also, in the test with RPMI-8226, the GI50 is < 0.01 µM (active).

With `CC(=O)OC/C=C(/CCl)CCC(Br)C(C)(C)Br.CC(=O)OC/C=C(\CCl)CCC(Br)C(C)(C)Br` (stereo not given), the GI50 in the test with M14, in the test with HCT-116, in the test with NCI-H522, in the test on 786-0, with UACC-62 and in the test on SK-MEL-28 was > 10 µM (inactive) each time. Moreover, the GI50 in the test on SNB-75, with CCRF-CEM, in the test with SF-295, in the test with SK-OV-3, in the test with SK-MEL-2 and in the test with NCI-H460 was > 10 µM (inactive) throughout. The GI50 in the test with MOLT-4, in the test on NCI-H226, in the test with CAKI-1, in the test on MDA-N, in the test with HCC 2998 and with PC-3 was > 10 µM (inactive) in each case. In addition, the GI50 in the test with RPMI-8226 was > 10 µM (inactive).

On to `CN(C)/N=C1/CCC(C(F)(F)F)(C(F)(F)F)O1`, for which the GI50 in the test with M14 was 25.1 µM (inactive); in the test on HCT-116, 29.7 µM (inactive); in the test with NCI-H522 it was 35.2 µM (inactive); in the test on 786-0, 29.4 µM (inactive); in the test with UACC-62, 28.1 µM (inactive); in the test with SK-MEL-28, 39.6 µM (inactive). Also, the GI50 in the test on SNB-75 is 26.3 µM (inactive); in the test on CCRF-CEM, 30.2 µM (inactive); in the test with SF-295, 39.5 µM (inactive); in the test with SK-OV-3 it was 38.3 µM (inactive); in the test with SK-MEL-2 it was 20.7 µM (inactive); with NCI-H460, 41 µM (inactive). For the same compound, the GI50 in the test on MOLT-4 was 37.2 µM (inactive); in the test on NCI-H226, 26.3 µM (inactive); with CAKI-1 it was 41 µM (inactive); with MDA-N it was 48.3 µM (inactive); in the test with HCC 2998, 30.6 µM (inactive); in the test with PC-3 it was 28.9 µM (inactive). The GI50 in the test with RPMI-8226 was 31.5 µM (inactive).

In the case of `C(=N\c1ccc(-c2nc3ccccc3s2)cc1)/c1ccc[nH]1`, the GI50 with M14 is 17.9 µM (inactive); in the test with HCT-116, 16.1 µM (inactive); with NCI-H522, 14.1 µM (inactive); in the test on 786-0, 21.9 µM (inactive); in the test with UACC-62 it was 15.6 µM (inactive); in the test on SK-MEL-28, 20.1 µM (inactive). The GI50 in the test with SNB-75 was 22.2 µM (inactive); in the test on CCRF-CEM, 21.7 µM (inactive); with SF-295 it was 13.3 µM (inactive); in the test with SK-OV-3 it was 17.7 µM (inactive); with SK-MEL-2 it was 17.3 µM (inactive); in the test with NCI-H460, 17.1 µM (inactive). The GI50 in the test with MOLT-4 was 11.7 µM (inactive); in the test with NCI-H226 it was 14.8 µM (inactive); in the test on CAKI-1 it was 22.8 µM (inactive); with MDA-N, 18 µM (inactive); with HCC 2998, 16.5 µM (inactive); in the test with PC-3 it was 14.9 µM (inactive). For the same compound, in the test with RPMI-8226, the GI50 is 15.5 µM (inactive).

On to `COc1cc(/C=C/C(=O)CC(=O)/C=C/c2cc(OC)c(O)c(OC)c2)cc(OC)c1O`, for which the GI50 in the test on M14 is 8.61 µM (inactive); in the test on HCT-116, 5.12 µM (inactive); in the test on NCI-H522, 5.81 µM (inactive); in the test with 786-0 it was 5.82 µM (inactive); in the test on UACC-62, 4.22 µM (inactive); in the test on SK-MEL-28, 5.71 µM (inactive). The GI50 with SNB-75 was 3.01 µM (inactive); with CCRF-CEM, > 25 µM (inactive); in the test with SF-295, 9.91 µM (inactive); in the test with SK-OV-3, 7.94 µM (inactive); in the test with SK-MEL-2, 7.57 µM (inactive); in the test on NCI-H460, 22.8 µM (inactive). The GI50 with MOLT-4 was 6.84 µM (inactive); in the test with NCI-H226, 10.2 µM (inactive); with CAKI-1, 9.04 µM (inactive); in the test on MDA-N, 4.74 µM (inactive); in the test with HCC 2998, 5.37 µM (inactive); with PC-3, 10.4 µM (inactive). Further, in the test on RPMI-8226, the GI50 is 9.86 µM (inactive).

Values taken from ChEMBL document CHEMBL1201862, “PubChem BioAssay data set” (2004).
